Reference: PMC11876601 (Molecular Systems Biology, 2025)
Several values for one entry are separate records, joined by “and”; a condition that tells them apart may be missing. Identical values can stand only once. Like-named read-outs stand apart in the source and are kept apart here. Blank lines part the entries; values can stand above or below the molecule they belong to.

Tests used:
PaTu-8988-T = assay: cells; design: Viability of PDAC cell lines, ATPlite luminescence, 11-dose single-agent curve fit; conditions: Homo sapiens, PaTu 8988t, 72 h, read-out: EC50 [nM]
Procedure: (§1) Afterward, small amounts were transferred to 384-well intermediate plates (Greiner Bio-One GmbH, Germany). […] For drug combination screening, 1000 to 5000 cells were seeded into 384-well plates (CulturPlate™, Perkin Elmer, MA, USA) using a Multidrop™ Combi Reagent Dispenser (Thermo Scientific, MA, USA) in 50 µl medium per well 24 h prior to drug treatment (seeding densities see Appendix Table S1). […] The final DMSO concentration in each well was 0.2%. […] Eight wells per plate without library drug served as negative controls, and sixteen wells per plate containing 5 µM Staurosporine served as positive controls. […] Next, we analyzed the drug sensitivity of immortalized duct cell line HPDE to detect effects unrelated to pancreatic cancer.

Suit2-07 = assay: cells; design: Viability of PDAC cell lines, ATPlite luminescence, 11-dose single-agent curve fit; conditions: 72 h, read-out: EC50 [nM]
Procedure: as §1

Dan-G = assay: cells; design: Viability of PDAC cell lines, ATPlite luminescence, 11-dose single-agent curve fit; conditions: 72 h, read-out: EC50 [nM]
Procedure: as §1

PSN-1 [1] = assay: cells; design: Viability of PDAC cell lines, ATPlite luminescence, 11-dose single-agent curve fit; conditions: Homo sapiens, PSN1, 72 h, read-out: EC50 [nM]
Procedure: as §1

PANC-1 = assay: cells; design: Viability of PDAC cell lines, ATPlite luminescence, 11-dose single-agent curve fit; conditions: Homo sapiens, PANC-1, 72 h, read-out: EC50 [nM]
Procedure: as §1

BxPC-3 = assay: cells; design: Viability of PDAC cell lines, ATPlite luminescence, 11-dose single-agent curve fit; conditions: Homo sapiens, BXPC-3, 72 h, read-out: EC50 [nM]
Procedure: as §1

AsPC-1 = assay: cells; design: Viability of PDAC cell lines, ATPlite luminescence, 11-dose single-agent curve fit; conditions: Homo sapiens, ASPC1, 72 h, read-out: EC50 [nM]
Procedure: as §1

Capan-1 = assay: cells; design: Viability of PDAC cell lines, ATPlite luminescence, 11-dose single-agent curve fit; conditions: Homo sapiens, CAPAN-1, 72 h, read-out: EC50 [nM]
Procedure: as §1

HPDE = assay: cells; design: Viability of PDAC cell lines, ATPlite luminescence, 11-dose single-agent curve fit; conditions: HPDE, 72 h, read-out: EC50 [nM]
Procedure: as §1

HuP-T4 = assay: cells; design: Viability of PDAC cell lines, ATPlite luminescence, 11-dose single-agent curve fit; conditions: Homo sapiens, HuP-T4, 72 h, read-out: EC50 [nM]
Procedure: as §1

FAMPAC = assay: cells; design: Viability of PDAC cell lines, ATPlite luminescence, 11-dose single-agent curve fit; conditions: 72 h, read-out: EC50 [nM]
Procedure: as §1

Colo-357 = assay: cells; design: Viability of PDAC cell lines, ATPlite luminescence, 11-dose single-agent curve fit; conditions: Homo sapiens, COLO357, 72 h, read-out: EC50 [nM]
Procedure: as §1

AsPC-1 cells = assay: Cell proliferation assay, chemodrug + ATR inhibitor (Incucyte confluence, 72 h); conditions: for EC50: Homo sapiens;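 for all read-outs here: underlying read-out for every value is AsPC-1 confluence after 72 h incubation at 37 °C and 5% CO2, divided by that well's starting confluence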
Procedure: Cells were seeded at 5000 cells/well into 96-well flat bottom plates (Eppendorf) and allowed to attach overnight. […] Cells were incubated for 72 h at 37 °C and 5% CO2. Cell confluence readouts at 72 h were either normalized to their initial confluence using the Incucyte software (AsPC-1) or used without prior normalization (all others). […] Each experiment was performed in triplicates, the data was plotted as mean ± standard deviation (s.d.).

PSN-1 [2] = assay: cells; design: ATPlite luminescence viability of PDAC cell lines, 11-dose single-agent curves, 4-parameter fit; conditions: Homo sapiens, PSN1, 72 h, read-out: EC50 [nM]
Procedure: as §1

MiaPaCa-2 = assay: cells; design: ATPlite luminescence viability of PDAC cell lines, 11-dose single-agent curves, 4-parameter fit; conditions: Homo sapiens, MIA PaCa-2, 72 h, read-out: EC50 [nM]
Procedure: as §1

[3] = AsPC-1, Experiment GEM (no ATRi), single replicates R1-R3
[4] = AsPC-1, Experiment GEM+ATRi_dose1, single replicates R1-R3
[5] = AsPC-1, Experiment GEM+ATRi_dose2, single replicates R1-R3
[6] = AsPC-1, Experiment GEM+ATRi_dose3, single replicates R1-R3

EC50 (PANC-1): > 10000 nM
EC50 (BxPC-3): 323 nM
EC50 (AsPC-1): 1.63 nM
Compound: CNC(=O)c1ccc(-c2cnc3ncc(Cc4ccc5ncccc5c4)n3n2)cc1F [Capmatinib]
EC50 (PaTu-8988-T): > 10000 nM
EC50 (Suit2-07): 6000 nM
EC50 (Dan-G): 451 nM
EC50 (PSN-1 [1]): 521 nM
EC50 (Capan-1): 6320 nM
EC50 (HPDE): 1090 nM
EC50 (HuP-T4): 3120 nM
EC50 (FAMPAC): 8.91 nM

EC50 (PANC-1): 60.8 nM
EC50 (BxPC-3): 333 nM
EC50 (AsPC-1): 72.9 nM
EC50 (Colo-357): 302 nM
Compound: Cc1cccc(-c2nn3c(c2-c2ccnc4ccc(C(N)=O)cc24)CCC3)n1 [Galunisertib]
EC50 (PaTu-8988-T): 98.7 nM
EC50 (Suit2-07): 3360 nM
EC50 (Dan-G): 47.4 nM
EC50 (PSN-1 [1]): 0.11 nM
EC50 (Capan-1): 151 nM
EC50 (HPDE): 230 nM
EC50 (HuP-T4): 1480 nM
EC50 (FAMPAC): 155 nM

Compound: O=C1[O][Pt]2([NH][C@@H]3CCCC[C@H]3[NH]2)[O]C1=O [Oxaliplatin]
pEC50 (AsPC-1 cells): 6.56
sensitization of AsPC-1 cells to the chemodrug by Elimusertib (AsPC-1 cells): sensitized

EC50 (AsPC-1 cells; ASPC1, 72 h, AsPC-1, Experiment GEM (no ATRi), single replicates R1-R3): 1.89 nM
EC50 (AsPC-1 cells; ASPC1, 72 h, read-out: EC50 mean [nM], AsPC-1, Experiment GEM (no ATRi), mean of R1-R3, repeated in each replicate line): 2.09 nM
EC50 (AsPC-1 cells; ASPC1, 72 h, read-out: pEC50, AsPC-1 (converted), Experiment GEM (no ATRi), single replicates R1-R3): 1.91 nM
EC50 (AsPC-1 cells; ASPC1, read-out: EC50 mean [nM], AsPC-1, Experiment GEM (no ATRi), mean of R1-R3, repeated in each replicate line): 2.09 nM
EC50 (AsPC-1 cells; ASPC1, read-out: EC50 mean [nM], AsPC-1, Experiment GEM+ATRi_dose1, mean of R1-R3, repeated in each replicate line): 2.62 nM
EC50 (AsPC-1 cells; ASPC1, read-out: EC50 mean [nM], AsPC-1, Experiment GEM+ATRi_dose3, mean of R1-R3, repeated in each replicate line): 2.03 nM
Compound: CC(=O)O[C@H]1C(=O)[C@@]2(C)[C@H]([C@H](OC(=O)c3ccccc3)[C@]3(O)C[C@H](OC(=O)[C@H](O)[C@@H](NC(=O)c4ccccc4)c4ccccc4)C(C)=C1C3(C)C)[C@]1(OC(C)=O)CO[C@@H]1C[C@@H]2O [Paclitaxel]
Curve slope (AsPC-1 cells; [3]): 1.97 and 2.99 and 2.20
Curve top (AsPC-1 cells; [3]): 0.44 and 0.38 and 0.36
Curve slope (AsPC-1 cells; [4]): 1.47 and 2.08 and 1.46
Curve top (AsPC-1 cells; [4]): 0.45 and 0.37 and 0.39
Curve slope (AsPC-1 cells; [5]): 2.59 and 1.83 and 1.78
Curve top (AsPC-1 cells; [5]): 0.45 and 0.38 and 0.37
Curve bottom (AsPC-1 cells; [6]): 0.92 and 0.80
Curve slope (AsPC-1 cells; [6]): 2.50 and 1.97 and 3.20
Curve top (AsPC-1 cells; [6]): 0.42 and 0.35 and 0.36
Response (AsPC-1 cells; chemodrug 1 nM + ATRi 3 nM): 78.95 and 82.15 and 71.41
Response (AsPC-1 cells; chemodrug 1 nM + ATRi 10 nM): 76.45 and 74.25 and 74.55
Response (AsPC-1 cells; chemodrug 1 nM + ATRi 30 nM): 75.55 and 68.26 and 64.62
Response (AsPC-1 cells; chemodrug 1 nM alone (ATRi 0 nM)): 78.71 and 81.33 and 75.17
Response (AsPC-1 cells; chemodrug 3 nM + ATRi 3 nM): 63.11 and 58.53 and 53.51
Response (AsPC-1 cells; chemodrug 3 nM + ATRi 10 nM): 46.62 and 47.02 and 47.86
Response (AsPC-1 cells; chemodrug 3 nM + ATRi 30 nM): 47.65 and 42.95 and 41.75
Response (AsPC-1 cells; chemodrug 3 nM alone (ATRi 0 nM)): 51.76 and 52.32 and 44.31
Response (AsPC-1 cells; chemodrug 10 nM + ATRi 3 nM): 44.83 and 35.01 and 34.23
Response (AsPC-1 cells; chemodrug 10 nM + ATRi 10 nM): 38.43 and 33.69 and 33.51
Response (AsPC-1 cells; chemodrug 10 nM + ATRi 30 nM): 39.64 and 34.49 and 30.28
Response (AsPC-1 cells; chemodrug 10 nM alone (ATRi 0 nM)): 41.65 and 34.17 and 31.46
Response (AsPC-1 cells; chemodrug 30 nM + ATRi 3 nM): 39.42 and 37.16 and 36.82
Response (AsPC-1 cells; chemodrug 30 nM + ATRi 10 nM): 50.74 and 48.74 and 42.64
Response (AsPC-1 cells; chemodrug 30 nM + ATRi 30 nM): 37.65 and 29.32 and 30.21
Response (AsPC-1 cells; chemodrug 30 nM alone (ATRi 0 nM)): 37.54 and 28.80 and 29.10
Response (AsPC-1 cells; chemodrug 100 nM + ATRi 3 nM): 42.23 and 38.61 and 46.44
Response (AsPC-1 cells; chemodrug 100 nM + ATRi 10 nM): 39.32 and 32.95 and 29.28
Response (AsPC-1 cells; chemodrug 100 nM + ATRi 30 nM): 43.96 and 36.95 and 33.77
Response (AsPC-1 cells; chemodrug 100 nM alone (ATRi 0 nM)): 39.78 and 30.74 and 27.32
Response (AsPC-1 cells; chemodrug 300 nM + ATRi 3 nM): 37.81 and 31.67 and 30.77
Response (AsPC-1 cells; chemodrug 300 nM + ATRi 10 nM): 33.31 and 30.07 and 28.41
Response (AsPC-1 cells; chemodrug 300 nM + ATRi 30 nM): 35.70 and 31.17 and 27.41
Response (AsPC-1 cells; chemodrug 300 nM alone (ATRi 0 nM)): 37.36 and 36.59 and 31.62
Response (AsPC-1 cells; chemodrug 1000 nM + ATRi 3 nM): 37.14 and 28.54 and 28.57
Response (AsPC-1 cells; chemodrug 1000 nM + ATRi 10 nM): 36.12 and 27.22 and 30.37
Response (AsPC-1 cells; chemodrug 1000 nM + ATRi 30 nM): 34.38 and 27.12 and 28.86
Response (AsPC-1 cells; chemodrug 1000 nM alone (ATRi 0 nM)): 37.88 and 33.79 and 33.23
Response (AsPC-1 cells; chemodrug 3000 nM + ATRi 3 nM): 36.69 and 27.57 and 27.01
Response (AsPC-1 cells; chemodrug 3000 nM + ATRi 10 nM): 34.07 and 26.83 and 25.03
Response (AsPC-1 cells; chemodrug 3000 nM + ATRi 30 nM): 28.21 and 28.84 and 28.63
Response (AsPC-1 cells; chemodrug 3000 nM alone (ATRi 0 nM)): 33.73 and 34.70 and 28.11
sensitization of AsPC-1 cells to the chemodrug by Elimusertib (AsPC-1 cells; chemodrug + three sub-EC50 doses of Elimusertib): not

EC50 (PANC-1): 282 nM
EC50 (BxPC-3): > 10000 nM
EC50 (AsPC-1): > 10000 nM
EC50 (Colo-357): 6330 nM
EC50 (MiaPaCa-2): 3920 nM
Compound: NC(=O)c1cnc2[nH]ccc2c1N[C@@H]1[C@@H]2CC3C[C@H]1C[C@@](O)(C3)C2 [Peficitinib]
EC50 (PaTu-8988-T): > 10000 nM
EC50 (Suit2-07): 2770 nM
EC50 (Dan-G): 3590 nM
EC50 (Capan-1): > 10000 nM
EC50 (HPDE): 8470 nM
EC50 (HuP-T4): 116 nM
EC50 (FAMPAC): > 10000 nM
EC50 (PSN-1 [2]): 6420 nM

EC50 (PANC-1): 515 nM
EC50 (BxPC-3): 1570 nM
EC50 (AsPC-1): 1530 nM
EC50 (Colo-357): 61.4 nM
EC50 (MiaPaCa-2): 1410 nM
Compound: CC(C)(C)c1cc(NC(=O)Nc2ccc(-c3cn4c(n3)sc3cc(OCCN5CCOCC5)ccc34)cc2)no1 [Quizartinib]
EC50 (PaTu-8988-T): 96.7 nM
EC50 (Suit2-07): 155 nM
EC50 (Dan-G): 932 nM
EC50 (PSN-1 [1]): 1470 nM
EC50 (Capan-1): 1420 nM
EC50 (HPDE): 2670 nM
EC50 (HuP-T4): 1020 nM
EC50 (FAMPAC): 2490 nM

EC50 (PANC-1): > 10000 nM
EC50 (BxPC-3): 227 nM
EC50 (AsPC-1): 6480 nM
EC50 (Colo-357): 1280 nM
EC50 (MiaPaCa-2): 1280 nM
Compound: CN(C)C(=O)c1cc2cnc(Nc3ccc(N4CCNCC4)cn3)nc2n1C1CCCC1 [Ribociclib]
EC50 (PaTu-8988-T): 9690 nM
EC50 (Suit2-07): 985 nM
EC50 (Dan-G): 3080 nM
EC50 (PSN-1 [1]): 2250 nM
EC50 (Capan-1): 491 nM
EC50 (HPDE): 49.6 nM
EC50 (HuP-T4): 1230 nM
EC50 (FAMPAC): 401 nM

EC50 (PANC-1): 3470 nM
EC50 (BxPC-3): 2980 nM
EC50 (AsPC-1): 4660 nM
EC50 (Colo-357): 4280 nM
EC50 (MiaPaCa-2): 2900 nM
Compound: COc1ccc(CN2[C@@H]3C[C@H]2CN(c2ccc(-c4cc(OCC(C)(C)O)cn5ncc(C#N)c45)cn2)C3)cn1 [Selpercatinib]
EC50 (PaTu-8988-T): 543 nM
EC50 (Suit2-07): 1160 nM
EC50 (Dan-G): 6000 nM
EC50 (PSN-1 [1]): > 10000 nM
EC50 (Capan-1): > 10000 nM
EC50 (HPDE): 4930 nM
EC50 (HuP-T4): 72.1 nM
EC50 (FAMPAC): > 10000 nM
